{"source": "BindingDB's records for doi:10.1016/j.ejmech.2019.04.066", "about": "(Shanghai Ocean University, 2019)", "test": "Inhibition of ICAM-1 in human A549 cells after 1 hr in presence of IL-1beta"}
{"smiles": "C[C@@H]1C(=O)O[C@H]2[C@H]1CC[C@@]1(C)C[C@@H](Br)C(=O)[C@@H](C)[C@H]21", "values": [{"measurement": "IC50", "result": 5.9, "unit": "µM"}]}
